According to article PMC6407917, “Identification of GSK3186899/DDD853651 as a Preclinical Development Candidate for the Treatment of Visceral Leishmaniasis” (Journal of Medicinal Chemistry, 2018):

Tests used:
Experiment in all cases: biochemical
Parameters in all cases: species or system HEK293/K-562/placenta mixed human extract; Kinobeads chemoproteomic competition binding, quantified by TMT LC-MS/MS, dose response up to 20 uM
BMPR1A = BMPR1A (Homo sapiens, UniProt P36894)
WNK4 = WNK4 (Homo sapiens, UniProt Q96J92)
Sequence of WNK4 (Q96J92 whole entry): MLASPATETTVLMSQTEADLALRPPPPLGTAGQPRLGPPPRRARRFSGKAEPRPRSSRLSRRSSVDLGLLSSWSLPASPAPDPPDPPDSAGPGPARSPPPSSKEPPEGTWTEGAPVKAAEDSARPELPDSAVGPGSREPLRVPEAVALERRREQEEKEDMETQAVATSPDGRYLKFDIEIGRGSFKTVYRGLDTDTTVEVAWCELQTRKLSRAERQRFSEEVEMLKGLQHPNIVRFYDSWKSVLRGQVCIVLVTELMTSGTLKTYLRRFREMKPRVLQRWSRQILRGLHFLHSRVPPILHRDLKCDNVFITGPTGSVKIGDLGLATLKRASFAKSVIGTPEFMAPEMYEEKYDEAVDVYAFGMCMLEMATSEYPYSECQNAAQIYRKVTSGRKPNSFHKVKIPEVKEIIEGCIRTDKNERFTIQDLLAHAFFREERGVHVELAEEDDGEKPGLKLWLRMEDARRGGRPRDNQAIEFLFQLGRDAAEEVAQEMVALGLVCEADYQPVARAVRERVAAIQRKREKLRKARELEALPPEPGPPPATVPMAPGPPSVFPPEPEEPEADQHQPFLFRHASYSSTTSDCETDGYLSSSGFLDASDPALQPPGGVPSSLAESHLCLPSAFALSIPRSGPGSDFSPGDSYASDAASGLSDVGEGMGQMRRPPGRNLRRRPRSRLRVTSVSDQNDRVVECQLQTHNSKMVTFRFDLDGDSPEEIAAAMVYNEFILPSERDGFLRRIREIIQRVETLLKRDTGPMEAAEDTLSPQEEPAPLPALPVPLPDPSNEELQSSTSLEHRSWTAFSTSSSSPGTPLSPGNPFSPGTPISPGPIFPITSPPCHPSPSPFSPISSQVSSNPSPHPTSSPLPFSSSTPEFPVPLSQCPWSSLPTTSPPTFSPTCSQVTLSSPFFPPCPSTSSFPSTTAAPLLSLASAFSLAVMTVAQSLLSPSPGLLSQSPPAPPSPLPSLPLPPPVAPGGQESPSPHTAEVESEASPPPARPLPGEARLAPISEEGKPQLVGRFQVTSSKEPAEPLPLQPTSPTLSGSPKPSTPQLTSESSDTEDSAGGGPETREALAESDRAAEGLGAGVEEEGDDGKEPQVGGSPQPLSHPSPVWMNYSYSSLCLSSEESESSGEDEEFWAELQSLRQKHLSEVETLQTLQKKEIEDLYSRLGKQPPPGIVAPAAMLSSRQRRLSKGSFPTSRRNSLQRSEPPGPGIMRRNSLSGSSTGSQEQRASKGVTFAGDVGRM

MAP2K1 = MAP2K1 (Homo sapiens, UniProt Q02750)
Sequence of MAP2K1 (Q02750 whole entry): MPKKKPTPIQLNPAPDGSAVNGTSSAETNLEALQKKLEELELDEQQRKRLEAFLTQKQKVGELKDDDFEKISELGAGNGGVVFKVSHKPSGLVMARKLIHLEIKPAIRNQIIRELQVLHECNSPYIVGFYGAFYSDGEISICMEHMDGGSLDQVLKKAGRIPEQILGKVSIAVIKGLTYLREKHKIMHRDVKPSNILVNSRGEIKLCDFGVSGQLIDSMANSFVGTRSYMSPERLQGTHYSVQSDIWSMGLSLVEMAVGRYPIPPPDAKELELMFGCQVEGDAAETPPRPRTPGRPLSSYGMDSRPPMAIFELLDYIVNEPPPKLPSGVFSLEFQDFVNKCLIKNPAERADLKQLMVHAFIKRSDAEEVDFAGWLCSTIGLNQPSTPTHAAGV

RIPK1 = RIPK1 (Homo sapiens, UniProt Q13546)
Sequence of RIPK1 (Q13546 whole entry): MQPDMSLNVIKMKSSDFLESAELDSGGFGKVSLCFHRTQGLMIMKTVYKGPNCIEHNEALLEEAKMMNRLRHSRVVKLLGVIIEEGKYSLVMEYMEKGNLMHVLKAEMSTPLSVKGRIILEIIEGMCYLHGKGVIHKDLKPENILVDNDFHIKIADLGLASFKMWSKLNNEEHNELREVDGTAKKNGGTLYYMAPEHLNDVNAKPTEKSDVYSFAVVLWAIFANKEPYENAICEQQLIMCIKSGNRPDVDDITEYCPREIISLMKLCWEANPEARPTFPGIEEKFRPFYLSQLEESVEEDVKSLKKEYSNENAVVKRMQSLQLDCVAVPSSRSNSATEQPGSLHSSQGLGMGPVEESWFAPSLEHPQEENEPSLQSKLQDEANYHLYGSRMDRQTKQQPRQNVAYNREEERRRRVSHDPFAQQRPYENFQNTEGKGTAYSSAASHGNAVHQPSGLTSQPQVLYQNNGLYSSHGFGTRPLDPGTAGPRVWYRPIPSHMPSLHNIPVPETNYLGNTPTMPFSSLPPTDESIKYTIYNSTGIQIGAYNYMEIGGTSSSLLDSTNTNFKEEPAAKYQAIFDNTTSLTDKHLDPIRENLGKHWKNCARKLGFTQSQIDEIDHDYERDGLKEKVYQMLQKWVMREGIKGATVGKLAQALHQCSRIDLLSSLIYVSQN

IKBKE = IKBKE (Homo sapiens, UniProt Q14164)
Sequence of IKBKE (Q14164 whole entry): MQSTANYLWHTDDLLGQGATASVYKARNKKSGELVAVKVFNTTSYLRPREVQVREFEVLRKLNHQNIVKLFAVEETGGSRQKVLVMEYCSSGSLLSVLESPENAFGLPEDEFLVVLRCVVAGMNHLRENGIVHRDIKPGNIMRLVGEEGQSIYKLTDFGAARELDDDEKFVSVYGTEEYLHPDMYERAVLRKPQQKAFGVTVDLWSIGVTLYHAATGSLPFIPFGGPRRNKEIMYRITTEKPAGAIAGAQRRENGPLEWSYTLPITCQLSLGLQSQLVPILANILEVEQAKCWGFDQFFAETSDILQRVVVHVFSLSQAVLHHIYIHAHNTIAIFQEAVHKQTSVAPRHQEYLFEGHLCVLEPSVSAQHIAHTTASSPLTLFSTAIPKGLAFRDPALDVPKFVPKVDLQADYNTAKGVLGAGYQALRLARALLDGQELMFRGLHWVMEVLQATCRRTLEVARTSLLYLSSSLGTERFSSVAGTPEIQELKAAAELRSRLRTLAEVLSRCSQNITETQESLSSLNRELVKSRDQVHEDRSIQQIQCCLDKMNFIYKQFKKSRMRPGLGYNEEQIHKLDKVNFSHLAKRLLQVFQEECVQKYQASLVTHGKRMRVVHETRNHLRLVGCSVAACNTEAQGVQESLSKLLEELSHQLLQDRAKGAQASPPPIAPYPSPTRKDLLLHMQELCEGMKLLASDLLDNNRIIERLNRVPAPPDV

PIK3C2B = PIK3C2B (Homo sapiens, UniProt O00750)
EPHA2 = EPHA2 (Homo sapiens, UniProt P29317)
MAP4K1 = MAP4K1 (Homo sapiens, UniProt Q92918)
PRKCA = PRKCA (Homo sapiens, UniProt P17252)
AAK1 = AAK1 (Homo sapiens, UniProt Q2M2I8)
PRKCB = PRKCB (Homo sapiens, UniProt P05771)
Sequence of PRKCB (P05771 whole entry): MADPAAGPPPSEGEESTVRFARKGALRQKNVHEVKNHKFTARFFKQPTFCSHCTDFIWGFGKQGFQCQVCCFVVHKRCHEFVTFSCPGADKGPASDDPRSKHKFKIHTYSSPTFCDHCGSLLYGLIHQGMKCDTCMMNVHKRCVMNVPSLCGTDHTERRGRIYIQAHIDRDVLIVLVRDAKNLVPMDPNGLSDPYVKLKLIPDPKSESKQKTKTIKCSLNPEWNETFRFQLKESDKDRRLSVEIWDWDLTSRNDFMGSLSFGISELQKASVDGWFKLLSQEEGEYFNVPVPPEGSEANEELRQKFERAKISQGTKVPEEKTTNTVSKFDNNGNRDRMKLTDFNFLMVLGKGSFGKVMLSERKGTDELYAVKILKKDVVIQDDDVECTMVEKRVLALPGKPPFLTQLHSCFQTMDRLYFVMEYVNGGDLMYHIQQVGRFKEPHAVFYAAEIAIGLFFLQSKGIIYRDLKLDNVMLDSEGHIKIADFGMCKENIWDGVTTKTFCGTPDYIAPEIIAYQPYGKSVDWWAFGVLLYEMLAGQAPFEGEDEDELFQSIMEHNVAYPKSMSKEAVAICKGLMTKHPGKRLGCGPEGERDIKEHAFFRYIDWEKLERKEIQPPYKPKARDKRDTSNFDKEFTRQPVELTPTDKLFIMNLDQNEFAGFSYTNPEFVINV

STK38L = STK38L (Homo sapiens, UniProt Q9Y2H1)
Sequence of STK38L (Q9Y2H1 whole entry): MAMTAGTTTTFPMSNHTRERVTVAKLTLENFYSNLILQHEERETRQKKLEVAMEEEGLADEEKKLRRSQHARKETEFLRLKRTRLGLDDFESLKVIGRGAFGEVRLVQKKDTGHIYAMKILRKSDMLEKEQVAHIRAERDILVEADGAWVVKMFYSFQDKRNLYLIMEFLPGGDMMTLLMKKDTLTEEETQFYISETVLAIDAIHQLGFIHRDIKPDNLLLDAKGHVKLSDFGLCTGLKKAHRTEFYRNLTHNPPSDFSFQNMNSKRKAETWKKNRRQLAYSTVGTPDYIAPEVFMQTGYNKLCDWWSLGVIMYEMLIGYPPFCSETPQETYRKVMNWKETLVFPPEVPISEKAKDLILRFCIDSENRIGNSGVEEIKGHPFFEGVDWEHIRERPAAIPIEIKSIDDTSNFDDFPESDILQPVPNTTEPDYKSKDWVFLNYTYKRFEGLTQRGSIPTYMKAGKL

CHUK = CHUK (Homo sapiens, UniProt O15111)
EPHA1 = EPHA1 (Homo sapiens, UniProt P21709)
NEK6 = NEK6 (Homo sapiens, UniProt Q9HC98)
MYLK = MYLK (Homo sapiens, UniProt Q15746)
MAP2K3 = MAP2K3 (Homo sapiens, UniProt P46734)
LIMK2 = LIMK2 (Homo sapiens, UniProt P53671)
TTK = TTK (Homo sapiens, UniProt P33981)
Sequence of TTK (P33981 whole entry): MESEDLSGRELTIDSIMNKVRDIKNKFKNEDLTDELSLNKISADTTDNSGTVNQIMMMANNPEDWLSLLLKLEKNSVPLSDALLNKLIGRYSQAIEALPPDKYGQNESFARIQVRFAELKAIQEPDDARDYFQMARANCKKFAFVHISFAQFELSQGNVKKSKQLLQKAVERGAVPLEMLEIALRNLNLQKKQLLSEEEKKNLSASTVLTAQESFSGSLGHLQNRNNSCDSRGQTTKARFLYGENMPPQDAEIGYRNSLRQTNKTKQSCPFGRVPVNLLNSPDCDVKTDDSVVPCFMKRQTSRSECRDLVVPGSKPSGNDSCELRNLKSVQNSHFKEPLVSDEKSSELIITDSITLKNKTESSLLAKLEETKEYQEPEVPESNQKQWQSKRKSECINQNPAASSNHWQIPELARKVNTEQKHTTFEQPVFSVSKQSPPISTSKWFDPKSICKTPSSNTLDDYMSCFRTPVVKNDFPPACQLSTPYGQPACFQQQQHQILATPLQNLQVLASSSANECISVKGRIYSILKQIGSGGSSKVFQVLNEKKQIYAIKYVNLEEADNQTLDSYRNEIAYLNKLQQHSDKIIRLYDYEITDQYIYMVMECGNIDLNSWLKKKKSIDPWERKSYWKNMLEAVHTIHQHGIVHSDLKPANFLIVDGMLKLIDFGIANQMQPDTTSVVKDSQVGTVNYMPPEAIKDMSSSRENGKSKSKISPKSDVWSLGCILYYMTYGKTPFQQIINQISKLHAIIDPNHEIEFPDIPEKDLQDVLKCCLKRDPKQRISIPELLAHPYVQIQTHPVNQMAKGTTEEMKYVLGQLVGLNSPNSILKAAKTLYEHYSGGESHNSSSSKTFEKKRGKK

HIPK1 = HIPK1 (Homo sapiens, UniProt Q86Z02)
MKNK1 = MKNK1 (Homo sapiens, UniProt Q9BUB5)

Measured: IC50

COc1ccccc1-c1n[nH]c2nc(N[C@H]3CC[C@H](NS(=O)(=O)CCC(F)(F)F)CC3)nc(OC)c12 [compound 31, 3,3,3-Trifluoro-N-(trans-4-((4-methoxy-3-(2-methoxyphenyl)-1H-pyrazolo[3,4-d]pyrimidin-6-yl)amino)cyclohexyl)propane-1-sulfonamide]
≥ 20 µM: all assays above
